Here are results for eleven molecules from publication PMC10733197, “Utilization of Rosuvastatin and Endogenous Biomarkers in Evaluating the Impact of Ritlecitinib on BCRP, OATP1B1, and OAT3 Transporter Activity” (Pharmaceutical Research, 2023).

The target in data set [1] is T1, OATP1B1 (Homo sapiens, UniProt Q9Y6L6).
T1 construct: expressed in transfected cells; host or cells: HEK293
T1 sequence (Q9Y6L6 1-691): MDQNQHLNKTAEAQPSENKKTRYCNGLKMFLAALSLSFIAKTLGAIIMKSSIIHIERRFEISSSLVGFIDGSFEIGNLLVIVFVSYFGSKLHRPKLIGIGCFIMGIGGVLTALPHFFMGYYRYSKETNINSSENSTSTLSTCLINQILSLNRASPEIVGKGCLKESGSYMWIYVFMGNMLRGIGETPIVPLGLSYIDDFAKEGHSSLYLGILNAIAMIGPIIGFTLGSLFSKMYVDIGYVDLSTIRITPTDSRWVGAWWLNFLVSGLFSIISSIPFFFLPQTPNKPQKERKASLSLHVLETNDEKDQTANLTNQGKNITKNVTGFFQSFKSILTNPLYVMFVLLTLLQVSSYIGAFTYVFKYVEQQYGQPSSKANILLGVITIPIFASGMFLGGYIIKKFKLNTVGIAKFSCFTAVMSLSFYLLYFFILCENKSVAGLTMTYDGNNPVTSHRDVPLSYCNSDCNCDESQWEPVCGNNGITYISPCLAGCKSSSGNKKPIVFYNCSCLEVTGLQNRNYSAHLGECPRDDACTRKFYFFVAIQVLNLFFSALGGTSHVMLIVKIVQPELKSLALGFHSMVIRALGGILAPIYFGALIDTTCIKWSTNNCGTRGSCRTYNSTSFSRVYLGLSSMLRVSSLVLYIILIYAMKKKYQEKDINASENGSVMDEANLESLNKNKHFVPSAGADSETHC
As to conditions: CP-I 0.1 µM; 30-minute pre-incubation; HEK293; published data; ref 1 (Rodrigues AD 2023); cited from earlier work.

Another data set deals with T2, OATP1B3 (Homo sapiens, UniProt Q9NPD5).
T2 construct: expressed in transfected cells; host or cells: HEK293
T2 sequence (Q9NPD5 1-702): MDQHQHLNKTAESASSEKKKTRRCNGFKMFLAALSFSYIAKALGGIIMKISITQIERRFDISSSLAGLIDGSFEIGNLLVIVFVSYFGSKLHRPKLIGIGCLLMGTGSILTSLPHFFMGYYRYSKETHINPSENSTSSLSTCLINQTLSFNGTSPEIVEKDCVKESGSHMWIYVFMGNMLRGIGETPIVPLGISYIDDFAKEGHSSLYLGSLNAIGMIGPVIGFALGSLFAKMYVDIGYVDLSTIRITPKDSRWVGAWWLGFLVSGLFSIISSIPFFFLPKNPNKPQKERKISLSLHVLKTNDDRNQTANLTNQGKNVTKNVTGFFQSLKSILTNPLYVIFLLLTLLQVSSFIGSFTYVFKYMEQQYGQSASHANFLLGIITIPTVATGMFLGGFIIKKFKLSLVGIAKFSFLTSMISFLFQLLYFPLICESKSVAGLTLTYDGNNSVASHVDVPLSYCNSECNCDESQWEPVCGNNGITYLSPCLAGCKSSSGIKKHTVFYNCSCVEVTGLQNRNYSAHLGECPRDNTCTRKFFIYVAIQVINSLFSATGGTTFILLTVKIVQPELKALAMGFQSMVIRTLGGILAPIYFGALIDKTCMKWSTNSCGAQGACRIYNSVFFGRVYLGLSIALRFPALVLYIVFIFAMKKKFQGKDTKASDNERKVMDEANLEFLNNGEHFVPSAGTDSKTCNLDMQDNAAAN
Conditions: CP-I 0.1 µM; 30-minute pre-incubation; HEK293; published data; ref 1 (Rodrigues AD 2023); cited from earlier work.

For data set [2] the following is noted: cited from earlier work; for Imax,inlet,u: ka = 0.1 min^-1 assumed, ref 1 (Rodrigues AD 2023).
Data set [3] relates to OATP1B1. As to conditions: cited from earlier work; for ∆CP-I Observed: AUC ratio or single CP-I concentration ratio ± perpetrator, ref 1 (Rodrigues AD 2023).
The subject of data set [4] is OATP1B1. The data set can be described thus: Plasma CP-I as endogenous biomarker of OATP1B1 in clinical DDI studies. Also on record: AUC24 / Cmax: unit not given beside the values. As to conditions: for AUC24 / Cmax: geometric mean (%CV). It is filed as in vivo, human. The method, then:
Blood and urine samples were collected at prespecified timepoints. Rosuvastatin plasma samples (~ 6 mL) were collected predose and at 0.5, 1, 2, 3, 4, 5, 6, 8, 10, 12, 16, 24, 36, 48, and 72 h postdose. CP-I and PDA plasma samples (~ 6 mL) were collected predose and at 0.5, 1, 2, 3, 4, 5, 6, 8, 10, 12, 16, and 24 h post rosuvastatin dosing. Rosuvastatin urine samples were collected at predose, 0–6 h, 6–12, 12–24, 24–48, and 48–72 h postdose. Each participant emptied their bladder just prior to dosing.
Quantification of CP-I was conducted by mass spectrometry according to King-Ahmad et al.. Plasma samples were spiked with stable label internal standard (^15N4-coproporphyrin I). CP-I was isolated through supported liquid extraction. The eluate was evaporated under a nitrogen stream at approximately 45 °C, and the remaining residue was reconstituted with 125 μL of water/acetonitrile/formic acid (750:250: 1, v/v/v). The final extract was analyzed via UPLC® with column switching and MS/MS detection using positive ion electrospray. A linear, 1/x^2 weighted, least-squares regression algorithm was used to quantitate sample concentrations.
The PK parameters for rosuvastatin, CP-I and PDA were calculated for each participant and each treatment using Pfizer’s internally validated electronic noncompartmental analysis software (eNCA) version 2.4.4. Samples below the lower limit of quantitation were set to zero for the PK analysis. Actual sample collection times were used for the PK analysis.
Natural log transformed area under the plasma concentration-time profile from time 0 extrapolated to infinity (AUCinf), maximum plasma concentration (Cmax), and apparent renal clearance (CLr) were analyzed using a mixed effect model with treatment as a fixed effect and participant as a random effect (SAS version 9.4; SAS Institute, Cary, NC, USA). Estimates of the adjusted mean differences (Test-Reference) and corresponding 90% CIs were obtained from the model. The adjusted mean difference and 90% CIs for the differences were exponentiated to provide estimates of the ratio of adjusted geometric means (Test/Reference) and 90% CIs for the ratios. Rosuvastatin alone was the reference treatment, while the rosuvastatin coadministered with ritlecitinib was the Test treatment.

Setting [5] is: rosuvastatin 10 mg + ritlecitinib 200 mg QD.
Where [6] appears, read: with vs without ritlecitinib 200 mg QD.

Several values for one entry are separate records, joined by “and”; a condition that tells them apart may be missing. Equal values may be shown once. Read-outs that look alike come from different tables or passages of the source.

For orientation: IC50 means the midpoint of a concentration-inhibition curve. Consider `COc1ccc([C@@H]2Sc3ccccc3N(CCN(C)C)C(=O)[C@@H]2OC(C)=O)cc1` [Diltiazem], for which the 50% inhibitory concentration (IC50) at OATP1B1 [1] was 100 µM; at OATP1B3 it was 175 µM.

For `C[C@H]1CN(C2COC2)CCN1c1ccc(Nc2cc(-c3ccnc(N4CCn5c(cc6c5CC(C)(C)C6)C4=O)c3CO)cn(C)c2=O)nc1` [Fenebrutinib], the results for the IC50 at OATP1B1 [1] and at OATP1B3 were 6.1 µM and 1.2 µM, respectively. In addition, the “Imax,inlet,u” value in data set [2] (inhibitor dose 200 mg) is 4.2 µM. Moreover, the “∆CP-I Observed” value in the data set with OATP1B1 [3] (inhibitor dose 200 mg) was 1.

Turning to `CC/C(=C(/c1ccc(/C=C/C(=O)O)cc1)c1ccc2[nH]ncc2c1)c1ccc(F)cc1Cl` [GDC-0810], the results for the 50% inhibitory concentration (IC50) on OATP1B1 [1] and at OATP1B3 were 0.2 µM and 0.9 µM, respectively. Moreover, the “Imax,inlet,u” value in data set [2] (inhibitor dose 600 mg) was 0.009 µM. Moreover, the “∆CP-I Observed” value in the data set with OATP1B1 [3] (inhibitor dose 600 mg) is on record as 1.5.

For the molecule `CCC(C)n1ncn(-c2ccc(N3CCN(c4ccc(OCC5COC(Cn6cncn6)(c6ccc(Cl)cc6Cl)O5)cc4)CC3)cc2)c1=O` (stereo not drawn) [Itraconazole], the half-inhibitory concentration (IC50) at OATP1B1 [1] and on OATP1B3 was 20 µM in each case. In data set [2] (inhibitor dose 200 mg), the “Imax,inlet,u” value is recorded as 0.3 µM. In the data set on OATP1B1 [3] (inhibitor dose 200 mg), the “∆CP-I Observed” value was 0.9.

As to `C[C@H]1CCN1c1nc(N2C[C@@H]3[C@@H](CC(=O)O)[C@@H]3C2)cc(C(F)(F)F)n1` [PF-06835919], the IC50 on OATP1B1 [1] is 4.3 µM; on OATP1B3, 5.6 µM. The “Imax,inlet,u” value in data set [2] (inhibitor dose 50 mg) was 1.5 µM; in data set [2] (inhibitor dose 100 mg), 2.5 µM; in data set [2] (inhibitor dose 280 mg), 8.2 µM; in data set [2] (inhibitor dose 400 mg) it was 10.3 µM; in data set [2] (inhibitor dose 600 mg), 15.3 µM. Besides, the “∆CP-I Observed” value in the data set on OATP1B1 [3] (inhibitor dose 50 mg) was 1.1; with OATP1B1 [3] (inhibitor dose 100 mg), 1.2; with OATP1B1 [3] (inhibitor dose 280 mg), 1.5; in the data set on OATP1B1 [3] (inhibitor dose 400 mg) it was 1.3; in the data set with OATP1B1 [3] (inhibitor dose 600 mg), 1.8.

Regarding `CC(=O)O[C@H]1C(=O)[C@@]2(C)[C@H]([C@H](OC(=O)c3ccccc3)[C@]3(O)C[C@H](OC(=O)[C@H](O)[C@@H](NC(=O)c4ccccc4)c4ccccc4)C(C)=C1C3(C)C)[C@]1(OC(C)=O)CO[C@@H]1C[C@@H]2O` [Paclitaxel], the IC50 on OATP1B3 is 0.7 µM. Moreover, the “∆CP-I Observed” value in the data set with OATP1B1 [3] (inhibitor dose 200 mg) was 2.8.

Turning to `O=C(O)[C@H]1C2CCC(CC2)[C@@H]1Nc1nc(-c2c[nH]c3ncc(F)cc23)ncc1F` [Pimodivir], the values for the IC50 at OATP1B1 [1] and at OATP1B3 were 0.5 µM and 1.1 µM, respectively. Moreover, the “Imax,inlet,u” value in data set [2] (inhibitor dose 600 mg) is on record as 0.4 µM. Moreover, the “∆CP-I Observed” value with OATP1B1 [3] (inhibitor dose 600 mg) is on record as 1.4.

Regarding `CCCN(CCC)S(=O)(=O)c1ccc(C(=O)O)cc1` [Probenecid], the “Cmax,u” value in data set [2] (inhibitor dose 1000 mg) was 22 µM. Moreover, in data set [2] (inhibitor dose 1,000 mg), the “Imax,inlet,u” value is 56.6 µM. Further, the IC50 at OATP1B3 was 118 µM. Also, the “∆CP-I Observed” value with OATP1B1 [3] (inhibitor dose 1,000 mg) was 1.4.

On to `CO[C@H]1/C=C/O[C@@]2(C)Oc3c(C)c(O)c4c(O)c(c(/C=N/N5CCN(C)CC5)c(O)c4c3C2=O)NC(=O)/C(C)=C\C=C\[C@H](C)[C@H](O)[C@@H](C)[C@@H](O)[C@@H](C)[C@H](OC(C)=O)[C@@H]1C` [Rifampicin], for which the “Imax,inlet,u” value was 3 µM in data set [2] (inhibitor dose 150 mg), 5.9 µM in data set [2] (inhibitor dose 300 mg) and 11.9 µM in data set [2] (inhibitor dose 600 mg). On OATP1B3, the IC50 is 0.3 µM. The “∆CP-I Observed” value in the data set on OATP1B1 [3] (inhibitor dose 150 mg) was 1.5; with OATP1B1 [3] (inhibitor dose 300 mg) it was 2.4 and 2.3; in the data set on OATP1B1 [3] (inhibitor dose 600 mg), 3.5 and 3.7 and 4 and 5.6.

`COc1ccc2c(O[C@@H]3C[C@H]4C(=O)N[C@]5(C(=O)NS(=O)(=O)C6CC6)C[C@H]5/C=C\CCCCN(C)C(=O)[C@@H]4C3)cc(-c3nc(C(C)C)cs3)nc2c1C` [Simeprevir]: the IC50 at OATP1B1 [1] is 1 µM; on OATP1B3, 0.5 µM. The “Imax,inlet,u” value in data set [2] (inhibitor dose 150 mg) is given as 0.002 µM. Also, the “∆CP-I Observed” value in the data set on OATP1B1 [3] (inhibitor dose 150 mg) was 1.4.

Regarding coproporphyrin I [CP-I], in the data set on OATP1B1 [4] (setting [5]), the AUC24 is 8729 (21) and the Cmax was 418.8 (19). In addition, in the data set on OATP1B1 [4] (rosuvastatin 10 mg alone), the AUC24 is recorded as 8915 (21) and the Cmax was 427.1 (22). Besides, in the data set on OATP1B1 [4] (setting [6]), the “AUC24 % Ratio (Test/Reference) of Adjusted Geometric Means (90% CI)” value is 97.91 (92.24, 103.94) % and the “Cmax % Ratio (Test/Reference) of Adjusted Geometric Means (90% CI)” value is reported as 98.06 (93.13, 103.26) %. Further, the “increase in exposure (AUC24)” value with OATP1B1 [3] (plasma CP-I with coadministration of rifampicin vs rosuvastatin alone) was 4.0 fold.
